Data: PMC7791547, “Biochemical characterization of an E. coli cell division factor FtsE shows ATPase cycles similar to the NBDs of ABC-transporters” (Bioscience Reports, 2021)

What was measured:
FtsE (FtsEEc) [1] = molecular target: T1, FtsE (FtsEEc) (Escherichia coli, UniProt P0A9R7, K41A); test: MANT-ATP fluorescence binding; conditions: labelled compound; 25 mM HEPES pH 7.5, 50 mM KCl, 10 mM MgCl2; Walker A mutant
T1 construct: ftsE ORF in His-pBAD18; His-tagged, soluble, expressed in E. coli C41; Ni-NTA and two SEC rounds
T1 sequence (P0A9R7 whole entry K41A): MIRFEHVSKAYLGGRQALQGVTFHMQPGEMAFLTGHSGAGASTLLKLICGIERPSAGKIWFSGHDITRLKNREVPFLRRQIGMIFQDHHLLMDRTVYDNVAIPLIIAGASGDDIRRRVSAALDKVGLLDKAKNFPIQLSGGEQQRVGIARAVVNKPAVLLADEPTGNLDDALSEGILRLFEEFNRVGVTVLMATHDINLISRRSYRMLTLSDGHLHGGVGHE

FtsE (FtsEEc) [2] = molecular target: T2, FtsE (FtsEEc) (Escherichia coli, UniProt P0A9R7); test: fluorescence titration, double reciprocal plot; type: binding
T2 construct: ftsE ORF in His-pBAD18; His-tagged, soluble, expressed in E. coli C41; Ni-NTA and two SEC rounds
T2 sequence (P0A9R7 1-222): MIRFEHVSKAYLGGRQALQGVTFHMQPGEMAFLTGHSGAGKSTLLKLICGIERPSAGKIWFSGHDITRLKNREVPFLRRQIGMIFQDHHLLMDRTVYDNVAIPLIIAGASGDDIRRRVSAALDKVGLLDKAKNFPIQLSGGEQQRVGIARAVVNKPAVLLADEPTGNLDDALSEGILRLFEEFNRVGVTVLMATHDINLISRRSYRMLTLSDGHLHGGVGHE

Kd (FtsE (FtsEEc) [2]): 21.5 ± 2.2 nM
SMILES: CNc1ccccc1C(=O)O[C@H]1[C@@H](O)[C@H](n2cnc3c(N)ncnc32)O[C@@H]1COP(=O)(O)OP(=O)(O)OP(=O)(O)O [MANT-ATP]
MANT-ATP fluorescence binding (FtsE (FtsEEc) [1]): ATP binding affinity for FtsE^K41A, and it was found to be much lower than wildtype
